{
  "source": "patent US20130005747A1",
  "about": "“METHOD FOR SELECTING A CANCER THERAPY” (Cyclacel Limited, priority 2010, published 2013)",
  "assay_in_all_cases": "Fractional growth, 72 h seliciclib",
  "type_in_all_cases": "cell-based, human",
  "key": {"Lu-135": {"tested_on": "Lu-135", "conditions": "Lu-135 (Lung), 15 μM seliciclib", "source_text": "(§1) A total of 270 human cancer cell lines from diverse cancer histopathologic types were investigated."}, "Panc 04.03": {"tested_on": "Panc 04.03", "conditions": "Panc 04.03 (Pancreas), 15 μM seliciclib", "source_text": "as §1"}, "A-427": {"tested_on": "A-427", "conditions": "A-427 (Lung: NSCLC), 15 μM seliciclib", "source_text": "as §1"}, "NCI-H1944": {"tested_on": "NCI-H1944", "conditions": "NCI-H1944 (Lung: NSCLC), 15 μM seliciclib", "source_text": "as §1"}, "HCC1395": {"tested_on": "HCC1395", "conditions": "HCC1395 (Breast), 15 μM seliciclib", "source_text": "as §1"}, "NCI-H1435": {"tested_on": "NCI-H1435", "conditions": "NCI-H1435 (Lung: NSCLC), 15 μM seliciclib", "source_text": "as §1"}, "SNG-M": {"tested_on": "SNG-M", "conditions": "SNG-M (Uterus), 15 μM seliciclib", "source_text": "as §1"}, "22RV1": {"tested_on": "22RV1", "conditions": "22RV1 (Prostate), 15 μM seliciclib", "source_text": "as §1"}, "NUGC-3": {"tested_on": "NUGC-3", "conditions": "NUGC-3 (Stomach), 15 μM seliciclib", "source_text": "as §1"}, "SW 13": {"tested_on": "SW 13", "conditions": "SW 13 (Kidney), 15 μM seliciclib", "source_text": "as §1"}, "SK-N-MC": {"tested_on": "SK-N-MC", "conditions": "SK-N-MC (Brain), 15 μM seliciclib", "source_text": "as §1"}, "SW 48": {"tested_on": "SW 48", "conditions": "SW 48 (Intestine), 15 μM seliciclib", "source_text": "as §1"}, "Ca Ski": {"tested_on": "Ca Ski", "conditions": "Ca Ski (Cervix), 15 μM seliciclib", "source_text": "as §1"}, "COLO-680N": {"tested_on": "COLO-680N", "conditions": "COLO-680N (Esophagus), 15 μM seliciclib", "source_text": "as §1"}, "CaR-1": {"tested_on": "CaR-1", "conditions": "CaR-1 (Intestine), 15 μM seliciclib", "source_text": "as §1"}, "AsPC-1": {"tested_on": "AsPC-1", "conditions": "AsPC-1 (Pancreas), 15 μM seliciclib", "source_text": "as §1"}, "HPAC": {"tested_on": "HPAC", "conditions": "HPAC (Pancreas), 15 μM seliciclib", "source_text": "as §1"}, "MS751": {"tested_on": "MS751", "conditions": "MS751 (Cervix), 15 μM seliciclib", "source_text": "as §1"}, "GP5d": {"tested_on": "GP5d", "conditions": "GP5d (Intestine), 15 μM seliciclib", "source_text": "as §1"}, "CS1R": {"tested_on": "CS1R", "conditions": "CS1R (Bone), 15 μM seliciclib", "source_text": "as §1"}, "143B": {"tested_on": "143B", "conditions": "143B (Bone), 15 μM seliciclib", "source_text": "as §1"}, "SW 1116": {"tested_on": "SW 1116", "conditions": "SW 1116 (Intestine), 15 μM seliciclib", "source_text": "as §1"}, "PA-TU-8902": {"tested_on": "PA-TU-8902", "conditions": "PA-TU-8902 (Pancreas), 15 μM seliciclib", "source_text": "as §1"}, "JHU-028EP": {"tested_on": "JHU-028EP", "conditions": "JHU-028EP (Head & Neck), 15 μM seliciclib", "source_text": "as §1"}, "HO-1-u-1": {"tested_on": "HO-1-u-1", "conditions": "HO-1-u-1 (Head & Neck), 15 μM seliciclib", "source_text": "as §1"}, "Calu-1": {"tested_on": "Calu-1", "conditions": "Calu-1 (Lung: NSCLC), 15 μM seliciclib", "source_text": "as §1"}, "EPLC-272H": {"tested_on": "EPLC-272H", "conditions": "EPLC-272H (Lung: NSCLC), 15 μM seliciclib", "source_text": "as §1"}, "SKG-IIIb": {"tested_on": "SKG-IIIb", "conditions": "SKG-IIIb (Cervix), 15 μM seliciclib", "source_text": "as §1"}, "PC-9": {"tested_on": "PC-9", "conditions": "PC-9 (Lung: NSCLC), 15 μM seliciclib", "source_text": "as §1"}, "H2373": {"tested_on": "H2373", "conditions": "H2373 (Lung), 15 μM seliciclib", "source_text": "as §1"}, "HDQ-P1": {"tested_on": "HDQ-P1", "conditions": "HDQ-P1 (Breast), 15 μM seliciclib", "source_text": "as §1"}, "KYSE-410": {"tested_on": "KYSE-410", "conditions": "KYSE-410 (Esophagus), 15 μM seliciclib", "source_text": "as §1"}, "Caki-1": {"tested_on": "Caki-1", "conditions": "Caki-1 (Kidney), 15 μM seliciclib", "source_text": "as §1"}, "C-33 A": {"tested_on": "C-33 A", "conditions": "C-33 A (Cervix), 15 μM seliciclib", "source_text": "as §1"}, "AZ-521": {"tested_on": "AZ-521", "conditions": "AZ-521 (Stomach), 15 μM seliciclib", "source_text": "as §1"}, "NCI-H1299": {"tested_on": "NCI-H1299", "conditions": "NCI-H1299 (Lung: NSCLC), 15 μM seliciclib", "source_text": "as §1"}, "Detroit 562": {"tested_on": "Detroit 562", "conditions": "Detroit 562 (Head & Neck), 15 μM seliciclib", "source_text": "as §1"}},
  "data": [
    {"smiles": "CC[C@H](CO)Nc1nc(NCc2ccccc2)c2ncn(C(C)C)c2n1", "note": "[seliciclib, roscovitine]", "values": [
      {"measurement": "Fractional Growth", "setting": "Lu-135", "value": 0.2812},
      {"measurement": "Fractional Growth", "setting": "Panc 04.03", "value": 0.4899},
      {"measurement": "Fractional Growth", "setting": "A-427", "value": 0.4252},
      {"measurement": "Fractional Growth", "setting": "NCI-H1944", "value": 0.6921},
      {"measurement": "Fractional Growth", "setting": "HCC1395", "value": 0.6999},
      {"measurement": "Fractional Growth", "setting": "NCI-H1435", "value": 0.6379},
      {"measurement": "Fractional Growth", "setting": "SNG-M", "value": 0.3393},
      {"measurement": "Fractional Growth", "setting": "22RV1", "value": 0.7432},
      {"measurement": "Fractional Growth", "setting": "NUGC-3", "value": 0.5557},
      {"measurement": "Fractional Growth", "setting": "SW 13", "value": 0.5624},
      {"measurement": "Fractional Growth", "setting": "SK-N-MC", "value": 0.283},
      {"measurement": "Fractional Growth", "setting": "SW 48", "value": 0.1123},
      {"measurement": "Fractional Growth", "setting": "Ca Ski", "value": 0.591},
      {"measurement": "Fractional Growth", "setting": "COLO-680N", "value": 0.6838},
      {"measurement": "Fractional Growth", "setting": "CaR-1", "value": 0.5795},
      {"measurement": "Fractional Growth", "setting": "AsPC-1", "value": 0.6879},
      {"measurement": "Fractional Growth", "setting": "HPAC", "value": 0.7062},
      {"measurement": "Fractional Growth", "setting": "MS751", "value": 0.3573},
      {"measurement": "Fractional Growth", "setting": "GP5d", "value": 0.7382},
      {"measurement": "Fractional Growth", "setting": "CS1R", "value": 0.2923},
      {"measurement": "Fractional Growth", "setting": "143B", "value": 0.6124},
      {"measurement": "Fractional Growth", "setting": "SW 1116", "value": 0.7592},
      {"measurement": "Fractional Growth", "setting": "PA-TU-8902", "value": 0.5577},
      {"measurement": "Fractional Growth", "setting": "JHU-028EP", "value": 0.3716},
      {"measurement": "Fractional Growth", "setting": "HO-1-u-1", "value": 0.4858},
      {"measurement": "Fractional Growth", "setting": "Calu-1", "value": 0.6124},
      {"measurement": "Fractional Growth", "setting": "EPLC-272H", "value": 0.6305},
      {"measurement": "Fractional Growth", "setting": "SKG-IIIb", "value": 0.6636},
      {"measurement": "Fractional Growth", "setting": "PC-9", "value": 0.7822},
      {"measurement": "Fractional Growth", "setting": "H2373", "value": 0.6168},
      {"measurement": "Fractional Growth", "setting": "HDQ-P1", "value": 0.8137},
      {"measurement": "Fractional Growth", "setting": "KYSE-410", "value": 0.4693},
      {"measurement": "Fractional Growth", "setting": "Caki-1", "value": 0.3885},
      {"measurement": "Fractional Growth", "setting": "C-33 A", "value": 0.5677},
      {"measurement": "Fractional Growth", "setting": "AZ-521", "value": 0.5115},
      {"measurement": "Fractional Growth", "setting": "NCI-H1299", "value": 0.3352},
      {"measurement": "Fractional Growth", "setting": "Detroit 562", "value": 0.1846}
    ]}
  ]
}
